From article PMC5153397 (EJNMMI Research, 2016)
Like-named read-outs stand apart in the source and are kept apart here.

How the values were obtained:
[1] = cited from earlier work
Text: Table 3 Absorbed kidney dose and effective dose of ^18F-labeled tracer and metal-labeled exendin PET and SPECT tracers | column: Kidney dose [mSv/MBq]; Effective dose [mSv/MBq]

[2] = pig, in vivo
Protocol: In addition, the stability of [^18F]exendin-4 was determined in pig plasma. Prior to blood sampling, animals were anesthetized (midazolam 1 mg/kg, xylazine 4 mg/kg intramuscular), connected to a respirator, and ventilated mechanically. Anesthesia was maintained with an i.v. infusion of propofol (10–20 mg/kg/h) and fentanyl (4–8 μg/kg/h). Vital signs were monitored throughout the study. Pigs were injected (radioactivity 1.2 ± 0.2 MBq/kg, mass 0.14 ± 0.04 μg/kg) and blood was sampled at 5, 15, 30, 60, and 180 min p.i. (N = 3 samples/time point). Plasma was treated and analyzed as described above.

[3] = target: T1, GLP-1R in pancreatic islets (Rattus norvegicus, UniProt P32301); experiment: In vitro binding in rat pancreas sections (autoradiography)
T1 construct: We dissected a rat pancreas and brain and froze them immediately after dissection; from tissue; host or cells: rat pancreas (islets): in vivo injection followed by ex vivo autoradiography, and frozen sections in vitro
T1 sequence (P32301 22-463): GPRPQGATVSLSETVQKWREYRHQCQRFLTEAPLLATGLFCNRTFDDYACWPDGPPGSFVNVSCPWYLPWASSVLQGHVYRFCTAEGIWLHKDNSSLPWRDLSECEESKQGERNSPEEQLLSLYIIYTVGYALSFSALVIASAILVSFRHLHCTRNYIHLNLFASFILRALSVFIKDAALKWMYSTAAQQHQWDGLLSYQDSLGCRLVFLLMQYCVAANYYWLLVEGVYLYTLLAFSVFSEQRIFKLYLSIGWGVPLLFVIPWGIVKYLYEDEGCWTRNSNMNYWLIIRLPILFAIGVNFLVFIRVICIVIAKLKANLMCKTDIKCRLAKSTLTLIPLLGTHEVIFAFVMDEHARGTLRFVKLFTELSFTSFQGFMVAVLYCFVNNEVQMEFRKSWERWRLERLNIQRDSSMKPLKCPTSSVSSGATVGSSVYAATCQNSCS
Protocol: (§1) We acquired a piece of human pancreas that was frozen immediately after surgery. We dissected a rat pancreas and brain and froze them immediately after dissection. Prior to incubations with ligand, the tissue sections of human and rat pancreas and GLP-1R-rich areas from rat brain [19] were incubated for 30 min with 1% BSA in PBS (pH 7.4). Then, sections were incubated for 60 min with various concentrations of [^18F]exendin-4 (range 2.5–20 nM) in vitro. To investigate tracer specificity, sections were incubated for 30 min with an excess of cold exendin-3 prior to adding [^18F]exendin-4. Sections were then washed and exposed to imaging plates, as described above (ex vivo autoradiography). Next, sections were stained and processed, as described above.

[4] = target: T2, GLP1-R-rich areas of rat brain (Rattus norvegicus, UniProt P32301); conditions: in vivo
T2 construct: We dissected a rat pancreas and brain and froze them immediately after dissection; from tissue; host or cells: rat brain (GLP-1R-rich areas): in vivo injection with ex vivo read-out, and frozen sections in vitro
T2 sequence (P32301 22-463): T1 sequence (P32301 22-463)
Protocol: The in vivo kinetics of [^18F]exendin-4 were evaluated with the Inveon Multimodality PET/CT scanner (Siemens, Knoxville, TN, USA). Rats were anesthetized with isoflurane/O2 and injected intravenously (i.v.) with [^18F]exendin-4 (radioactivity 23 ± 5 MBq/kg, mass 2 ± 1 μg/kg). PET scans were acquired for up to 6 h (dynamic 0–60 min; static 210–240 min and 330–360 min; N = 2–5 rats/scan). The data were reconstructed with the ordered subset expectation maximization OSEM2D algorithm. Analyses were performed with Inveon Research Workplace 3 software (Siemens), after defining the volumes of interest (VOIs) on selected tissues.
Rats were anesthetized with isoflurane/O2 and injected (i.v.) with [^18F]exendin-4 (radioactivity 23 ± 5 MBq/kg, mass 2 ± 1 μg/kg). […] Tissue radioactivity was measured with a γ-counter (Wizard, PerkinElmer, Turku, Finland). […] Measurements were corrected for radionuclide decay, and results were reported as the percentage of the injected dose of radioactivity per gram of tissue (%ID/g).
The kidney, pancreas, and brain were sectioned and exposed to imaging plates (Fuji BAS-TR2025; Fuji Photo Film Co., Tokyo, Japan) for approximately 4 h. Imaging plates were scanned with a BAS-5000 scanner (Fuji Photo Film Co.) and the images were analyzed with AIDA 4.5 software (Raytest, Isotopenmessgeräte, Straubenhardt, Germany). […] Finally, the islet-to-exocrine tissue ratio was calculated. […]

[5] = target: T3, GLP-1R-rich areas from rat brain (Rattus norvegicus, UniProt P32301); experiment: In vitro binding in rat brain sections (autoradiography); conditions: lateral septum, 1.25 nM (Fig. 7)
T3 construct: We dissected a rat pancreas and brain and froze them immediately after dissection; from tissue; host or cells: rat brain (GLP-1R-rich areas): in vivo injection with ex vivo read-out, and frozen sections in vitro
T3 sequence (P32301 22-463): T1 sequence (P32301 22-463)
Protocol: as §1, with “Then, sections were incubated for 60 min with various concentrations of [^18F]exendin-4 (range 2.5–20 nM) in vitro.” left out

GLP-1R in the islets [6] = target: T4, GLP-1R in the islets (Rattus norvegicus, UniProt P32301); experiment: Ex vivo autoradiography of rat pancreas; format: in vivo
T4 construct: We dissected a rat pancreas and brain and froze them immediately after dissection; from tissue; host or cells: rat pancreas (islets): in vivo injection followed by ex vivo autoradiography, and frozen sections in vitro
T4 sequence (P32301 22-463): T1 sequence (P32301 22-463)
Protocol: Rats were anesthetized with isoflurane/O2 and injected (i.v.) with [^18F]exendin-4 (radioactivity 23 ± 5 MBq/kg, mass 2 ± 1 μg/kg). After injection, animals were allowed to recover from the anesthesia (except animal sacrificed 15 min p.i.). We further investigated tracer distribution in the brain by injecting one rat with a highly radioactive dose (50 MBq) of [^18F]exendin-4. Animals were sacrificed at 15, 30, 60, 120, 240, and 360 min (N = 2–11 rats/time point). Blood was extracted, and selected organs were dissected and weighed. Tissue radioactivity was measured with a γ-counter (Wizard, PerkinElmer, Turku, Finland). Tracer specificity was tested by co-injecting radiolabeled exendin-4 with an excess of cold exendin-3 (3 mg/kg) (Peptide Specialty Laboratories GmbH). Measurements were corrected for radionuclide decay, and results were reported as the percentage of the injected dose of radioactivity per gram of tissue (%ID/g).
The kidney, pancreas, and brain were sectioned and exposed to imaging plates (Fuji BAS-TR2025; Fuji Photo Film Co., Tokyo, Japan) for approximately 4 h. Imaging plates were scanned with a BAS-5000 scanner (Fuji Photo Film Co.) and the images were analyzed with AIDA 4.5 software (Raytest, Isotopenmessgeräte, Straubenhardt, Germany). Three pancreatic sections per rat were analyzed (N = 2–8 rats/time point). We determined the mean density values (photostimulated luminescence per square millimeter, PSL/mm^2) of ten prominently labeled islets and of the exocrine tissue and corrected for background noise. Finally, the islet-to-exocrine tissue ratio was calculated. […] The pancreatic sections used for autoradiography were then stained with insulin antibody (1’ mouse-anti-insulin, Nordic Biosite, Täby, Sweden, 2’ MAHC1 mouse probe, Biocare Medical, Concord, CA, USA), counterstained with hematoxylin, and imaged with a Slide Scanner (Pannoramic 250 F, 3DHistech, Budapest, Hungary).

[7] = parameters: species or system human
Protocol: Absorbed doses were calculated with OLINDA/EXM1.0 software, which includes radionuclide information and a selection of human body phantoms. Rat ex vivo biodistributions were estimated by integrating the area under the time–activity curves. The obtained residence times were converted into corresponding human values by multiplying with organ-specific factors that scaled organs to body weights, as follows: (W TB,rat/W Organ,rat) × (W Organ,human/W TB,human), where W TB,rat and W TB,human are the total body weights of rats and humans (70-kg male), respectively; and W Organ,rat and W Organ,human are the organ weights of rats and humans (70-kg male), respectively.

GLP-1R in the islets [8] = target: T5, GLP-1R in the islets (Homo sapiens, UniProt P43220); experiment: In vitro binding in human pancreas sections (autoradiography); conditions: human pancreatic tissue sections
T5 construct: We acquired a piece of human pancreas that was frozen immediately after surgery; from tissue; host or cells: human pancreas, frozen surgical specimen, sections
Protocol: as §1

[9] = parameters: method as in PMID 12629557; conditions: rat; cited from earlier work

T5 sequence (P43220 24-463): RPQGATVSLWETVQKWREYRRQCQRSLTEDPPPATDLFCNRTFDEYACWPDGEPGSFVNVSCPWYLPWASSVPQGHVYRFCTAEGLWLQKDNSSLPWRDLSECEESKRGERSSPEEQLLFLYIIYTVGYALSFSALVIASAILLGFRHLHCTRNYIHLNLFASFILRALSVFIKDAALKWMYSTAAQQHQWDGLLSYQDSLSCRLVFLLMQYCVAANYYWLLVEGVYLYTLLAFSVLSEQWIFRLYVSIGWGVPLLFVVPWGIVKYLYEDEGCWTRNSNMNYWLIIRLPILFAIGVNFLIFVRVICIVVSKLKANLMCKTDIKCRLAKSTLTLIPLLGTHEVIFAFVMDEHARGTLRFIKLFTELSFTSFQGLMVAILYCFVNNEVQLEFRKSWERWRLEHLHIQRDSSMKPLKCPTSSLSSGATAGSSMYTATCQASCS

## [^64Cu]NODAGA-exendin-4: metal-labeled exendin PET tracer, ref 3
[1]
  Effective dose: 0.074 mSv/MBq
  Kidney dose: 1.48 mSv/MBq

## [^111In]DTPA-exendin-4: metal-labeled exendin SPECT tracer
[1]
  Effective dose: 0.155 mSv/MBq
  Kidney dose: 4.48 mSv/MBq

## ^18F-labeled [Nle^14,Lys^40]exendin-4 [[^18F]exendin-4]
[2]
  arrhythmia after administration: arrhythmia was observed
  blood pressure after administration: decreased
  body temperature after administration: 41 °C
  heart rate after administration: 230–250 beats/min
[3]; 60 min incubation, 2.5 nM (Fig. 6), autoradiography
  islet labeling in vitro: islet labeling was observed
[3]; excess of cold exendin-3 added
  islet labeling in vitro with blocking: not detected
[4]
  blood–brain barrier crossing: did not cross the blood–brain barrier
[5]
  labeling of GLP-1R areas in brain in vitro: clearly labeled
GLP-1R in the islets [6]; co-injected with excess cold exendin-3, ex vivo autoradiography
  islet labeling with blocking: not visible
GLP-1R in the islets [6]; ex vivo autoradiography, PSL/mm^2 of ten islets vs exocrine tissue, N = 2–8 rats/time point
  islet-to-exocrine tissue ratio: increased over time
GLP-1R in the islets [6]; i.v., ex vivo autoradiography, 60 min p.i. (Fig. 5a), verified by insulin staining
  tracer uptake in pancreatic islets: tracer uptake was observed
[7]
  Effective dose: 0.021 mSv/MBq
  absorbed radiation dose, LLI (lower large intestine) wall: 0.003 mSv/MBq
  absorbed radiation dose, ULI (upper large intestine) wall: 0.005 mSv/MBq
  absorbed radiation dose, adrenal glands: 0.016 mSv/MBq
  absorbed radiation dose, brain: 0.004 mSv/MBq
  absorbed radiation dose, breasts: 0.004 mSv/MBq
  absorbed radiation dose, gallbladder wall: 0.011 mSv/MBq
  absorbed radiation dose, heart wall: 0.010 mSv/MBq
  absorbed radiation dose, liver: 0.026 mSv/MBq
  absorbed radiation dose, lungs: 0.071 mSv/MBq
  absorbed radiation dose, muscle: 0.005 mSv/MBq
  absorbed radiation dose, osteogenic cells: 0.045 mSv/MBq
  absorbed radiation dose, ovaries: 0.003 mSv/MBq
  absorbed radiation dose, pancreas: 0.023 mSv/MBq
  absorbed radiation dose, red bone marrow: 0.009 mSv/MBq
  absorbed radiation dose, skin: 0.003 mSv/MBq
  absorbed radiation dose, small intestine: 0.005 mSv/MBq
  absorbed radiation dose, spleen: 0.022 mSv/MBq
  absorbed radiation dose, stomach wall: 0.007 mSv/MBq
  absorbed radiation dose, testes: 0.001 mSv/MBq
  absorbed radiation dose, thymus: 0.005 mSv/MBq
  absorbed radiation dose, thyroid: 0.003 mSv/MBq
  absorbed radiation dose, total body: 0.009 mSv/MBq
  absorbed radiation dose, urinary bladder wall: 0.002 mSv/MBq
  absorbed radiation dose, uterus: 0.003 mSv/MBq
GLP-1R in the islets [8]; excess cold exendin-3 added
  tracer binding in human pancreatic islets with blocking: no [^18F]exendin-4 binding was observed
GLP-1R in the islets [8]; various concentrations (2.5–20 nM), 60 min, autoradiography, verified by insulin immunostaining
  tracer binding in human pancreatic islets: clearly visible

## exendin-4
[9]
  blood–brain barrier crossing: crossed the blood–brain barrier
